Earlier results on three compounds are cited in patent US20050065133A1, “Pharmaceutical compositions and methods comprising combinations of 2-alkylidene-19-nor-vitamin D derivatives and an EP2 or EP4 selective agonist” (Pfizer Inc, priority 2003, published 2005).

Read-outs that look alike come from different tables or passages of the source.

In data set [1] the test system is Male Holtzman strain weanling rats. The following applies: single intrajugular injection, 650 pmol, 24 h later, mean ± SEM.
The subject of the next data set is Male weanling rats. The following applies: for Serum Calcium (mg/100 ml): intraperitoneal, vitamin D-deficient low-calcium diet, 24 h after last dose, mean ± SEM.

For `C=C1/C(=C\C=C2/CCC[C@]3(C)[C@@H]([C@H](C)CCCC(C)(C)O)CC[C@@H]23)C[C@@H](O)C[C@@H]1O` [1,25-(OH)2D3, 1,25-dihydroxyvitamin D3, reference compound], the “Serum Calcium (mg/100 ml)” value is recorded as 5.7 ± 0.2 mg/100 ml in data set [1], 13.8 mg/100 ml with Male weanling rats (130 pmol/day/7 days) and 7.2 ± 0.5 mg/100 ml with Male weanling rats (260 pmol/day/7 days).

For the compound `C=C1[C@H](O)CC(=C/C=C2\CCC[C@]3(C)[C@@H]([C@H](C)CCCC(C)(C)O)CC[C@@H]23)C[C@H]1O` [2-Methylene-19-Nor-1,25-(OH)2D3, 1α,25-dihydroxy-2-methylene-19-nor-vitamin D3], the “Serum Calcium (mg/100 ml)” value in data set [1] is recorded as 6.4 ± 0.1 mg/100 ml; with Male weanling rats (130 pmol/day/7 days), 9.9 ± 0.2 mg/100 ml; in the data set on Male weanling rats (260 pmol/day/7 days) it was 9.6 ± 0.3 mg/100 ml. The “inducing differentiation of HL-60 cells to the monocyte, in words” value in the data set with HL-60 cells is “activity similar to 1,25-(OH)2D3”. Moreover, in the data set with Male weanling rats (chronic 7-day dosing), the “selectivity for bone calcium mobilization over intestinal calcium transport, in words” value was “selective for the mobilization of calcium from bone”. Moreover, the “bone calcium mobilization activity relative to 1,25-(OH)2D3” value in the data set with Male weanling rats (chronic 7-day dosing, stated as likely) was 10-100 times. In addition, in the data set on Male weanling rats (given for 7 days in a chronic mode, 130 and 260 pmol/day), the “bone calcium mobilization, in words” value is given as “extremely strong”.

`C=C1[C@H](O)CC(=C/C=C2\CCC[C@]3(C)[C@@H]([C@@H](C)CCCC(C)(C)O)CC[C@@H]23)C[C@H]1O` [2-Methylene-19-Nor-20S-1,25-(OH)2D3, (20S)-1α,25-dihydroxy-2-methylene-19-nor-vitamin D3]: the “Serum Calcium (mg/100 ml)” value in data set [1] was 8.0 ± 0.1 mg/100 ml; in the data set with Male weanling rats (130 pmol/day/7 days) it was 13.8 ± 0.5 mg/100 ml; with Male weanling rats (260 pmol/day/7 days), 14.4 ± 0.6 mg/100 ml; with Male weanling rats (260 pmol/day/7 days, listed as 2-methylene-19-nor-20S-1,25-(OH)2D3), 14 mg/100 ml. For the same compound, in the data set on HL-60 cells, the “inducing differentiation of HL-60 cells to the monocyte, in words” value was “extremely potent”. In addition, in the data set with Male weanling rats (chronic 7-day dosing), the “selectivity for bone calcium mobilization over intestinal calcium transport, in words” value was “selective for the mobilization of calcium from bone”.
